Earlier results as cited in US20180185454A1, “AGENT FOR PREVENTING ONSET OF IDIOPATHIC OSTEONECROSIS OF FEMORAL HEAD AND/OR SUPPRESSING PROGRESS OF SAME” (ASAHI KASEI PHARMA CORPORATION, priority 2015, published 2018).
Like-named read-outs stand apart in the source and are kept apart here.

Key:
[1] = system: osteonecrosis of the jawbone; conditions: induced by bisphosphonates and denosumab
ION = conditions: vs alendronate control; no statistical superiority between the two groups; dosage not disclosed

For `CC[C@H](C)[C@H](NC(=O)[C@H](CCC(=O)O)NC(=O)[C@H](CO)NC(=O)[C@@H](NC(=O)[C@@H](N)CO)C(C)C)C(=O)N[C@@H](CCC(N)=O)C(=O)N[C@@H](CC(C)C)C(=O)N[C@@H](CCSC)C(=O)N[C@@H](Cc1cnc[nH]1)C(=O)N[C@@H](CC(N)=O)C(=O)N[C@@H](CC(C)C)C(=O)NCC(=O)N[C@@H](CCCCN)C(=O)N[C@@H](Cc1cnc[nH]1)C(=O)N[C@@H](CC(C)C)C(=O)N[C@@H](CC(N)=O)C(=O)N[C@@H](CO)C(=O)N[C@@H](CCSC)C(=O)N[C@@H](CCC(=O)O)C(=O)N[C@@H](CCCN=C(N)N)C(=O)N[C@H](C(=O)N[C@@H](CCC(=O)O)C(=O)N[C@@H](Cc1c[nH]c2ccccc12)C(=O)N[C@@H](CC(C)C)C(=O)N[C@@H](CCCN=C(N)N)C(=O)N[C@@H](CCCCN)C(=O)N[C@@H](CCCCN)C(=O)N[C@@H](CC(C)C)C(=O)N[C@@H](CCC(N)=O)C(=O)N[C@@H](CC(=O)O)C(=O)N[C@H](C(=O)N[C@@H](Cc1cnc[nH]1)C(=O)N[C@@H](CC(N)=O)C(=O)N[C@@H](Cc1ccccc1)C(=O)O)C(C)C)C(C)C` [teriparatide], the “effect on bone formation markers” value (bone formation markers; 20 μg daily formulation) is given as “markedly increases”, the “effect on bone formation markers” value (bone formation markers; 56.5 μg once-a-week formulation) is given as “only slightly” and the “effect against osteonecrosis of the jawbone” value [1] is given as “have an effect”. For the same compound, the “femoral head collapse progress (difference in collapse values before and after administration, simple x-ray frontal views)” value (ION) was “tended to suppress femoral head collapse progress in comparison to alendronate”.
